The values that follow come from PMC7756582, “Prodrugs of γ‐Alkyl‐Modified Nucleoside Triphosphates: Improved Inhibition of HIV Reverse Transcriptase” (Angewandte Chemie (International Ed. in English), 2020).

For the experiment, the target named is T1, human DNA polymerase β (Homo sapiens, UniProt P06746).
T1 construct: purchased Roboklon
In words: Primer extension assay with human DNA polymerase β. The experiment is classed as biochemical. The conditions noted are these: single triphosphate, 66 μM, Pol β 6 U, 60 min. As for the experimental part: Two different set‐ups have been used. First, a mixture of dATP, dCTP, dGTP, and γ‐alkyl‐TTP (N*) or ‐d4TTP (T*) was used as a mixture. The results obtained from these experiments were compared to those in which just γ‐alkyl‐TTP (N) or d4TTP (T) was used. In each experiment a primer extension without added polymerase (negative control, ‐ lane) and an experiment in which all four canonical NTPs were added (positive control, +lane) were used as controls.
Figure 4 Primer extension assay using DNA polymerase β and the γ‐alkyl‐dNTP 7 and 15. Lane 1 (−): dATP, dGTP, dCTP and TTP without human DNA polymerase β; lane 2 (+): dATP, dGTP, dCTP, and TTP with human Pol β; lane 3 (N, C4‐T): γ‐C4‐TTP 15 w; lane 4 (N, C18‐T): γ‐C18‐TTP 15 z; lane 5 (T, C4‐d4T): γ‐C4‐d4TTP 7 w; lane 6 (T, C11‐d4T): γ‐C11‐d4TTP 7 x; lane 7 (T, C18‐d4T): γ‐C18‐d4TTP 7 z; lane 8 (d4TTP): d4TTP. […]
Anti-HIV activity assay: Inhibition of HIV-1(IIIB)- and HIV-2(ROD)-induced cytopathicity in wild-type CEM/0 and thymidine kinase-deficient CEM/TK- cell cultures was measured in microtiter 96-well plates containing ~3·105 CEM cells/mL infected with 100 CCID50 of HIV per milliliter and containing appropriate dilutions of the test compounds. […]
2) For HIV- RT assay: The final assay solution (10 µL) consists of 50 mM Tris-HCl (pH 8.6 at 22 °C), 10 mM MgCl2, 40mM KCl, dNTPs 66 µM, HIV RT 6 U, Hybrid 0.32 µM in a reaction volume of 10 µL, incubated 37 °C for 15 min, 80 °C for 3 min; 50 mA, 45w for 4 h. […] The result was visualized by fluorescence imaging.
3) For human DNA pol β assay: The final assay solution (10 µL) consists of 50 mM Tris-HCl (pH 8.7), 10 mM MgCl2, 100mM KCl, 1.0 mM dithiothreitol, 0.4 mg/ml of bovine serum albumin, 15% glycerol, dNTPs 66 µM, DNA Polymerase Beta 6 U, Hybrid 0.32 µM in a reaction volume of 10 µL, incubated 37 °C for 60 min, 80 °C for 3 min; 50 mA, 45w for 4 h. […] The result was visualized by fluorescence imaging. […]

Turning to `CCCCOP(=O)(O)OP(=O)(O)OP(=O)(O)OCC1C=CC(n2cc(C)c(=O)[nH]c2=O)O1` (stereo not drawn) [7 w, γ‐C4‐d4TTP], the “primer extension by DNA polymerase β (substrate properties)” value (shortened to “primer extension by DNA polymerase β”) is listed as “good substrate”.

As to `CCCCCCCCCCCCCCCCCCOP(=O)(O)OP(=O)(O)OP(=O)(O)OCC1C=CC(n2cc(C)c(=O)[nH]c2=O)O1` (stereo not drawn) [7 z, γ‐C18‐d4TTP], the “primer extension by DNA polymerase β” value is listed as “no incorporation was detected”.

As to `Cc1cn(C2C=CC(COP(=O)(O)OP(=O)(O)OP(=O)(O)O)O2)c(=O)[nH]c1=O` (stereo not drawn) [2 t, d4TTP, reference compound], the “primer extension by DNA polymerase β” value is reported as “efficiently incorporated”.
